The test system of one experiment is B. subtilis 168 strain. The experiment is described as follows: MIC, standard microtiter broth dilution. The class given is cell-based, Bacillus subtilis. The settings on record: for MIC: B. subtilis 168 strain grown in LB broth at 37 °C for 18 h; for antibacterial (antimicrobial) activity against B. subtilis: in words. The procedure: The minimum inhibitory concentrations (MICs) were determined using the standard microtiter broth dilution method, as recommended by the guidelines of the Clinical Laboratory Standards Institute.

For another experiment, the target named is T1, WalK (Bacillus subtilis, UniProt Q45614).
T1 construct: His6 (N); made in house; host or cells: E. coli BL21(DE3)
The experiment is described as follows: Inhibition of WalK autophosphorylation. Type of experiment: biochemical. As to conditions: for IC50: against WalK from B. subtilis, autophosphorylation, N.I. = no inhibition; for inhibitory activity against WalK: in words. On the set-up: key to WalK: WalK + inhibitory effect against WalK. The procedure: Autophosphorylation of WalK was conducted at 0.5 or 1 µM in a reaction mixture comprising 50 mM Tris-HCl (pH 8.5), 100 mM KCl, 5 mM MgCl2, 100 mM NH4Cl, 5% DMSO, and 40 µM ATP. The total reaction volume was 40 µl, and the incubation lasted for 30 min at 25 °C. To terminate the reaction, 40 µl of 2 × SDS-PAGE sample buffer was added, followed by a 10-min incubation at 37 °C. Subsequently, SDS-PAGE (10% acrylamide) was performed, and the samples were subjected to Western blotting using a PVDF membrane (Bio-Rad 1620177). The primary antibody used was anti-N3-phosphohistidine antibody (clone SC56-2) (EDM Millipore Corp), and the secondary antibody was goat anti-rabbit IgG-HRP (Abcam). A 2% bovine serum albumin (Sigma-Aldrich) solution served as the blocking reagent. Signals originating from phosphorylated HKs were detected using the HRP substrate (Immobilon Western Chemiluminescent HRP substrate, Millipore) and the Multi Imager II Multi Box (Bio Tools). Signal intensities were quantified with Image Analysis Software CS Analyzer 4 (ATTO). IC50 values (50% inhibitory concentrations) were determined using Prism 7 software (GraphPad).
In the assessment of naphthoquinone derivatives, the initial screening for inhibitory activity against WalK autophosphorylation was conducted at 50 or 100 µg ml^−1. Compounds displaying inhibitory activity were further examined to ascertain their IC50 values against WalK. For the chosen compounds, inhibition against EvgS, EnvZ, PhoQ, and CpxA HKs was also assessed. These reactions involved the use of 1 µM HK, 40 µM ATP, and a 30 min incubation at 25 °C.

The next experiment relates to iseA (formerly yoeB). In words: RT-qPCR of iseA expression in B. subtilis cells. On the set-up: key to RT-qPCR: RT-qPCR + iseA gene expression was induced in B. subtilis 168; − no effect. The settings on record: summary class, iseA gene expression in B. subtilis 168. Type of experiment: cell-based, B. subtilis 168. The procedure: In brief, the cells were aerated and grown to an optical density at 660 nm of 0.3–0.4 at 37 °C. After the addition of DMSO or naphthoquinone derivatives, the cultures were further incubated for 5 min, cooled on ice for 1 min, and then harvested by centrifugation (2300 × g, 10 min, 4 °C). The cells were resuspended in 800 µl of RNA Lysis Buffer (SV Total RNA Isolation System, Z3100, Promega), transferred to a screw-capped tube containing 400 mg of glass beads (GB-01, TOMY), and disrupted using MicroSmash (MS-100, TOMY Medico) at 3000 rpm, 60 s ON/OFF for 6 cycles. RNA was then purified from 175 µl of the supernatant using the SV Total RNA Isolation System, followed by DNase I treatment (Turbo DNA-free^TM Kit, AM1907, Invitrogen) to remove any residual genomic DNA contamination. […] The expression levels of the genes were normalized using the 16S rRNA gene as an internal standard. Each assay was performed at least three times. Statistical analyses were conducted using Tukey’s multiple comparison test (GraphPad Prism 7).

Experiment [1] concerns the target T2, WalK (207-611, B. subtilis) (Bacillus subtilis, UniProt Q45614).
T2 construct: His6 (N); made in house; host or cells: E. coli BL21(DE3)
In words: Affinity selection/mass spectrometry, competition with waldiomycin. Type of experiment: binding. The procedure:
The affinity selection/mass spectrometry (AS/MS) is a method which can detect the binding of small compounds to proteins. This experiment was carried out following a previously established protocol (Fig. 5), with the exception of using Millipore 96-well filter plates (MSBVN1210) instead of MAHAN4510. In the experiment, 1 µM of WalK (207-611, B. subtilis, refer to Table S2) was combined and incubated with 5 µM of waldiomycin and competitor compounds in a reaction buffer. The buffer composition was as follows: 25 mM Tris-HCl (pH 8.0), 50 mM KCl, 50 mM NH4Cl, 5 mM MgCl2, 1 mM DTT, and 0.1% CHAPS. Following the incubation, the mixture was subjected to size-exclusion chromatography via centrifugation to eliminate free compounds. The protein that was eluted was then denatured by adding an equal volume of methanol/0.1% formic acid. The compounds that were subsequently released from the protein were detected using an LC/MS system. The concentrations of waldiomycin were calculated from the value of peak areas using calibration curve that covered the range of 1 nM to 1 µM (R^2 = 0.9991). The concentration of waldiomycin in the eluate of WalK and waldiomycin without competitor was 10.1 nM, and percentages to this value were calculated for other samples.

[2] abbreviates: Bacillus subtilis, read-out: MIC.

“Also recorded” adds a separate entry of the source. Read-outs that look alike come from different tables or passages of the source.

T2 sequence (Q45614 207-611): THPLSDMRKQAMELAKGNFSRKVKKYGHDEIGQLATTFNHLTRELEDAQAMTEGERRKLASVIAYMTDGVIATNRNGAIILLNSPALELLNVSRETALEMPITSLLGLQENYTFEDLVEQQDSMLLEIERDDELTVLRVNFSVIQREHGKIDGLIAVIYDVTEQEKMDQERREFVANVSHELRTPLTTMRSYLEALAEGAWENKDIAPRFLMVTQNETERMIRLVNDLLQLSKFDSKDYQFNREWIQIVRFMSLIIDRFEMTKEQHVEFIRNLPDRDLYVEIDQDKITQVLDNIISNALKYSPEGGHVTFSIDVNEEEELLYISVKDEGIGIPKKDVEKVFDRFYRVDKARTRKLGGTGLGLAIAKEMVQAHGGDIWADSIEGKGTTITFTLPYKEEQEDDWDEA
T1 sequence (Q45614 207-611): as above

As to `O=C1C(N2CCNCC2)=C(Cl)C(=O)c2c1cccc2[N+](=O)[O-]` [2d, 3-chloro-5-nitro-2-(piperazin-1-yl)naphthalene-1,4-dione], in the experiment on B. subtilis 168 strain, the MIC was found to be 8 µg/mL and the “antibacterial (antimicrobial) activity against B. subtilis” value (“antibacterial (antimicrobial) activity” for short) is reported as “equal to waldiomycin or even stronger”. The IC50 on WalK (read-out: IC50) worked out at 305 µM.

On to `O=C1C(Cl)=C(N2CCNCC2)C(=O)c2ccccc21` [2c, 2-chloro-3-(piperazin-1-yl)naphthalene-1,4-dione], for which, in the experiment with B. subtilis 168 strain, the minimum inhibitory concentration (MIC) is 8 µg/mL and the “antibacterial (antimicrobial) activity” value is “equal to waldiomycin or even stronger”. For the same molecule, at WalK, the half-maximal inhibitory concentration (IC50) result is given as “N.I” and the “inhibitory activity against WalK” value is “did not show any inhibitory activity; also recorded: inactive”.

Turning to `COc1ccc(NC2=C(Cl)C(=O)c3c(O)ccc(O)c3C2=O)cc1` [2k, 2-chloro-5,8-dihydroxy-3-((4-methoxyphenyl)amino)naphthalene-1,4-dione], in the experiment with B. subtilis 168 strain, the MIC is above 128 µg/mL and the “antibacterial (antimicrobial) activity” value was “no or a very weak antimicrobial activity”. In addition, on WalK, the IC50 entry was “N.I” and the “inhibitory activity against WalK” value is reported as “did not show any inhibitory activity; also recorded: noninhibitory; also recorded: did not inhibit WalK”.

Take `O=C1c2onc(-c3ccccc3)c2C(=O)c2c(O)ccc(O)c21` [3a, 5,8-dihydroxy-3-phenylnaphtho[2,3-d]isoxazole-4,9-dione]: in the experiment on B. subtilis 168 strain, the MIC stood at 0.5 µg/mL and the “antibacterial (antimicrobial) activity” value is “equal to waldiomycin or even stronger”. For the same molecule, the concentration for half-maximal inhibition (IC50) on WalK (read-out: IC50) was 51 µM.

In the case of `O=C1C(Cl)=C(NCCc2ccc(O)c(O)c2)C(=O)c2c(O)ccc(O)c21` [2f, 2-chloro-3-((3,4-dihydroxyphenethyl)amino)-5,8-dihydroxynaphthalene-1,4-dione], in the experiment with B. subtilis 168 strain, the MIC turned out to be 8 µg/mL and the “antibacterial (antimicrobial) activity” value is listed as “equal to waldiomycin or even stronger”. Further, at WalK, the IC50 result is on record as “N.I” and the “inhibitory activity against WalK” value was “did not show any inhibitory activity; also recorded: inactive”.

With `O=C1C(Cl)=C(NCCO)C(=O)c2c(O)ccc(O)c21` [2e, 2-chloro-5,8-dihydroxy-3-((2-hydroxyethyl)amino)naphthalene-1,4-dione], in the experiment with B. subtilis 168 strain, the minimal inhibitory concentration (MIC) stood at 2 µg/mL and the “antibacterial (antimicrobial) activity” value was “equal to waldiomycin or even stronger”. In addition, on WalK, the IC50 result is given as “N.I” and the “inhibitory activity against WalK” value was “did not show any inhibitory activity; also recorded: inactive”.

Take `O=C1C(Cl)=C(Nc2ccc(Cl)c(O)c2)C(=O)c2c(O)ccc(O)c21` [2i, 2-chloro-3-((4-chloro-3-hydroxyphenyl)amino)-5,8-dihydroxynaphthalene-1,4-dione]: in the experiment with B. subtilis 168 strain (listed as C00017), the MIC was 4 µg/mL. In addition, in the experiment with B. subtilis 168 strain, the “antibacterial (antimicrobial) activity” value is reported as “equal to waldiomycin or even stronger”. The IC50 result on WalK (listed as C00017) is given as “N.I”. The “inhibitory activity against WalK” value at WalK was “did not show any inhibitory activity; also recorded: inactive”.

Regarding `O=C1C(Nc2ccc(Cl)c(O)c2)=CC(=O)c2c(O)cccc21` [2j, 2-((4-chloro-3-hydroxyphenyl)amino)-5-hydroxynaphthalene-1,4-dione], the MIC in the experiment with B. subtilis 168 strain (setting [2]) came to 4 µg/mL. The “antibacterial (antimicrobial) activity” value with B. subtilis 168 strain is reported as “equal to waldiomycin or even stronger”. Moreover, the concentration for half-maximal inhibition (IC50) on WalK (read-out: IC50) was found to be 75.1 µM.

In the case of `O=C(O)c1cc(NC2=C(Cl)C(=O)c3c(O)ccc(O)c3C2=O)ccc1O` [2m, 5-((3-chloro-5,8-dihydroxy-1,4-dioxo-1,4-dihydronaphthalen-2-yl)amino)-2-hydroxybenzoic acid], in the experiment on B. subtilis 168 strain, the MIC came out at 64 µg/mL and the “antibacterial (antimicrobial) activity” value is “weaker”. Moreover, on WalK (read-out: IC50), the concentration for half-maximal inhibition (IC50) was determined as 45 µM. Moreover, the “inhibitory activity against WalK” value at WalK is listed as “weaker”.

Turning to `O=C(O)c1cc(NC2=C(Cl)C(=O)c3c(cccc3[N+](=O)[O-])C2=O)ccc1O` [2n, 5-((3-chloro-5-nitro-1,4-dioxo-1,4-dihydronaphthalen-2-yl)amino)-2-hydroxybenzoic acid], in the experiment with B. subtilis 168 strain, the MIC amounted to 128 µg/mL and the “antibacterial (antimicrobial) activity” value is recorded as “no or a very weak antimicrobial activity”. For the same molecule, on WalK, the half-maximal inhibitory concentration (IC50) entry is given as “N.I” and the “inhibitory activity against WalK” value is given as “did not show any inhibitory activity; also recorded: did not inhibit WalK”.

As to `O=C1C(Cl)=C(Nc2cccc(O)c2)C(=O)c2c(O)ccc(O)c21` [2g, 2-chloro-5,8-dihydroxy-3-((3-hydroxyphenyl)amino)naphthalene-1,4-dione], in the experiment with B. subtilis 168 strain, the MIC was found to be 1 µg/mL and the “antibacterial (antimicrobial) activity” value is given as “equal to waldiomycin or even stronger”. The half-maximal inhibitory concentration (IC50) on WalK (read-out: IC50) amounted to 31.7 µM.

As for `O=C1C(Cl)=C(N2CCNCC2)C(=O)c2c(O)ccc(O)c21` [2a, 2-chloro-5,8-dihydroxy-3-(piperazin-1-yl)naphthalene-1,4-dione], at WalK (read-out: IC50), the half-maximal inhibitory concentration (IC50) was 32.4 µM. Also, on WalK, the “inhibitory activity against WalK” value was “weaker”. In addition, the WalK result on WalK (summary class) is on record as “+”. In addition, the RT-qPCR entry in the experiment on iseA (formerly yoeB) is reported as “+”. Also, the “effect on the signal of waldiomycin” value in experiment [1] (compound 30 and 100 µM, in words) was “reduced the signal of waldiomycin in a dose-dependent manner”. Moreover, the “signal of waldiomycin compared to only waldiomycin with WalK” value in experiment [1] (compound at 100 µM, waldiomycin 5 µM, WalK 1 µM) is given as “about 10%”. Also, the “binding to WalK competitive with that of waldiomycin” value in experiment [1] (in words) was “competitive; also recorded: competitively interacted with waldiomycin”.

In the case of `O=C1c2onc(-c3ccccc3)c2C(=O)c2cccc(O)c21` [3c, 8-hydroxy-3-phenylnaphtho[2,3-d]isoxazole-4,9-dione], the MIC in the experiment on B. subtilis 168 strain (setting [2]) stood at 0.5 µg/mL. For the same molecule, in the experiment on B. subtilis 168 strain, the “antibacterial (antimicrobial) activity” value is “equal to waldiomycin or even stronger”. At WalK, the half-maximal inhibitory concentration (IC50) entry is reported as “N.I” and the “inhibitory activity against WalK” value is recorded as “did not show any inhibitory activity”.

The values above are taken from PMC11284088, “Synthesis and biochemical characterization of naphthoquinone derivatives targeting bacterial histidine kinases” (The Journal of Antibiotics, 2024).
